Measurements reported in patent publication US7557212B2, “Tricyclic derivatives as LTD4 antagonists” (Laboratorios Almirall, S.A., priority 2002, dated 2009).
pIC50: −log10 of the molar value. Where two headings read alike, the source gives them in different places.

How the values were obtained:
CysLT1 = molecular target: T1, CysLT1 (Cavia porcellus, UniProt Q2NNR5); test: CysLT1/LTD4 radioligand binding assay ([3H]LTD4, guinea-pig lung membrane preparation); settings: 300 pM [3H]LTD4, guinea-pig lung membranes, 30 minutes at room temperature
T1 construct: The assay mixture also contained 200 μg of lung membrane protein/plate well; from tissue; host or cells: guinea-pig lung (primarily parenchyma) membrane preparation
T1 sequence (Q2NNR5 1-340): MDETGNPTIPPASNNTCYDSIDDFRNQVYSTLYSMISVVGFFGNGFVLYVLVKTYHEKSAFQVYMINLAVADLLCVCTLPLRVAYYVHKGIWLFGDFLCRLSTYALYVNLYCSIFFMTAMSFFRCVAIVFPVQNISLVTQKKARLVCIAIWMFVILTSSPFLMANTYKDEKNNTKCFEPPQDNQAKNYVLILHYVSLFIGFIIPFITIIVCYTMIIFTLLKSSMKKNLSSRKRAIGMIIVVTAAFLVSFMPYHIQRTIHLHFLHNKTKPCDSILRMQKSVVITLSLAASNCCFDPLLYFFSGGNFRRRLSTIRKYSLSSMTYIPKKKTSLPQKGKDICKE
Protocol: CysLT1/LTD4 Binding Protocol (Guinea-Pig Lung Membrane Preparation)
Guinea pigs were sacrificed and lung tissues removed. Connective tissue, trachea, large blood vessels and major airways were removed and the remaining tissue, primarily parenchyma, was homogenised in 20 volumes of 10 mM TRIS pH 7.4 containing 0.25M sucrose, 0.25 mM phenylmethylsulfonyl fluoride, 155 μg/ml benzenecarboximide, 5 μg/ml soybean trypsin inhibitor and 100 μg/ml bacitracin (Work Buffer), in a ULTRA-TURRAX T25 at 13500 rpm. The homogenate was centrifuged at 1000×g for 10 minutes at 4° C. The resulting supernatant was filtered through a sterile cloth and further centrifuged for 15 minutes at 40000×g at 4° C. The pellet obtained was resuspended in 10 volumes of Work Buffer, homogenised using a Potter (1100 rpm) and subjected to a final centrifugation step for 30 minutes at 40000×g at 4° C. This membrane pellet was finally resuspended in 10 volumes of 10 mM TRIS and 10 mM PIPES pH 7.4, and homogenised using a Potter (1100 rpm). Protein concentration was determined by the BRADFORD method using the Bio-Rad Protein Assay kit with BSA as standard. Protein aliquots were kept frozen at −80° C.
Radioligand Binding Assay
[^3H]LTD4 (136.9 Ci/mmol) was obtained from NEN.
The assays were performed in a final volume of 250 μl of 10 mM PIPES pH 7.5 containing 10 mM CaCl2, 10 mM MgCl2, 50 mM NaCl, 2 mM L-Cysteine, 2 mM Glycine and 300 pM [^3H]LTD4. The assay mixture also contained 200 μg of lung membrane protein/plate well. Non-specific binding was determined in the presence of zafirlukast 10 μM.
The assays were performed directly on Millipore Multiscreen GF/B plates, presoaked with 200 μl/well of assay buffer at room temperature. Incubations were conducted for 30 minutes at room temperature with continuous shaking. Separation of bound and free [^3H]LTD4 was done by filtration through the plates that were then washed three times with 175 μl/wash of 10 mM TRIS containing 100 mM NaCl at 4° C. The plates were dried and counted in a TRILUX Microbeta Liquid Scintillation Counter of Wallac.

[1] = system: LTD4-induced airway microvascular leakage; test: LTD4-induced microvascular permeability in guinea-pigs (Evans blue extravasation in trachea); type: in vivo, guinea pig; settings: oral gavage 4 hours before, LTD4 1 μg/kg i.v., male Dunkin-Hartley guinea pigs
Protocol: LTD4-Induced Microvascular Permeability in Guinea-Pigs
Male Dunkin-Hartey guinea pigs (450-500 g) fasted for 18 hours were administered the test compounds by oral gavage 4 hours before being anesthetized with urethane (15%, i.p. 10 ml/kg). The left jugular vein was canulated under anaesthesia. Five minutes afterwards, Evans blue dye (40 mg/Kg) was injected intravenously. After five more minutes, LTD4 was administered (1 μg/kg, i.v.) to the animals in order to induce airway microvascular leakage. After yet another period of 5 minutes, animals were exsanguinated by cutting the right atria and the vascular bed was rinsed by perfusing 50 ml of saline solution through the left ventricle at a pressure of 150 cmH2O. Then the trachea was excised and incubated in formamide for 20 hours at 55° C. to extract the Evans blue dye from the tissue. Microvascular permeability was determined by light spectrophotometry at 620 nm of the extravasated dye.

[2] = Cavia porcellus, read-out: ED50

Row | SMILES | pIC50 (CysLT1) | ED50 [1, 2] [mg/kg] | ED50 [1] [mg/kg]
1 | O=C(O)CCSC1c2cc(OCc3ccc4cc(F)c(Cl)cc4n3)ccc2CCc2ncccc21 (single isomer, unassigned; (+)) [Example 43, (+) 3-[7-(7-Chloro-6-fluoro-quinolin-2-ylmethoxy)-10,11-dihydro-5H-benzo[4,5]cyclohepta[1,2-b]pyridin-5-ylsulfanyl]-propionic Acid] | 8.47 | – | –
2 | O=C(O)CSC1c2cc(/C=C/c3ccc4cc(F)c(F)cc4n3)ccc2OCc2ncccc21 (stereo not drawn) [Example 12, {(7-[(E)-2-(6,7-difluoroquinolin-2-yl)vinyl]-5,11-dihydro[1]benzoxepino[3,4-b]pyrindin-5-yl)thio}acetic Acid] | 9.46 | – | –
3 | O=C(O)CCSC1c2cc(OCc3ccc4cc(F)c(Cl)cc4n3)ccc2CCc2ncccc21 (stereo not drawn) [Example 23, 3-[7-(7-Chloro-6-fluoro-quinolin-2-ylmethoxy)-10,11-dihydro-5H-benzo[4,5]cyclohepta[1,2-b]pyridin-5-ylsulfanyl]-propionic Acid] | 9.47 | 0.002 | –
4 | O=C(O)CC1(CSC2c3cc(/C=C/c4ccc5cc(F)c(F)cc5n4)ccc3OCc3ncccc32)CC1 (stereo not drawn) [Example 11, 1-{[(7-[(E)-2-(6,7-difluoroquinolin-2-yl)vinyl]-5,11-dihydro[1]benzoxepino[3,4-b]pyrindin-5-yl)thio]methyl}cyclopropyl Acetic] | 9.57 | 0.0013 | –
5 | CC(C)(CC(=O)O)SC1c2cc(OCc3ccc4cc(F)c(F)cc4n3)ccc2OCc2ncccc21 (stereo not drawn) [Example 9, 3-{(7-[(6,7-difluoroquinolin-2-yl)methoxy]-5,11-dihydro[1]benzoxepino[3,4-b]pyrindin-5-yl)thio}-3methylbutanoic Acid] | 9.23 | 0.018 | –
6 | O=C(O)CCSC1c2ccncc2CCc2ccc(OCc3ccc4cc(F)c(F)cc4n3)cc21 (stereo not drawn) [Example 25, 3-[7-(6,7-Difluoro-quinolin-2-ylmethoxy)-10,11-dihydro-5H-benzo[4,5]cyclohepta[1,2-c]pyridin-5-ylsulfanyl]-propionic Acid] | 9.17 | – | –
7 | O=C(O)CCSC1c2cc(OCc3ccc4cc(F)c(F)cc4n3)ccc2OCc2ncccc21 (single isomer, unassigned; (-)) [Example 35, (−)-3-[7-(6,7-Difluoro-quinolin-2-ylmethoxy)-5,11-dihydro-10-oxa-1-aza-dibenzo[a,d]cyclohepten-5-ylsulfanyl]-propionic Acid] | 9.46 | – | 0.009
8 | O=C(O)CSC1c2cc(OCc3ccc4cc(F)c(Cl)cc4n3)ccc2OCc2ncccc21 (stereo not drawn) [Example 3, {(7-[(7-chloro,6-fluoro-quinolin-2-yl)methoxy]-5,11-dihydro[1]benzoxepino[3,4-b]pyrindin-5-yl)thio}acetic Acid] | 9.57 | – | –
9 | O=C(O)CCSC1c2cc(OCc3ccc4cc(F)c(F)cc4n3)ccc2C=Cc2ncccc21 (stereo not drawn) [Example 33, 3-[7-(6,7-Difluoro-quinolin-2-ylmethoxy)-5H-benzo[4,5]cyclohepta[1,2-b]pyridin-5-ylsulfanyl]-propionic Acid] | 9.30 | – | –
10 | CC(C)(O)c1ccccc1CC[C@@H](SCC1(CC(=O)O)CC1)c1cccc(/C=C/c2ccc3ccc(Cl)cc3n2)c1 [Compound B, reference compound] | – | 0.008 | –
11 | CC(C)(CSC1c2cc(OCc3ccc4cc(F)c(F)cc4n3)ccc2OCc2ncccc21)C(=O)O (stereo not drawn) [Example 8, 3-{(7-[(6,7-difluoroquinolin-2-yl)methoxy]-5,11-dihydro[1]benzoxepino[3,4-b]pyrindin-5-yl)thio}-2,2-dimethylpropanoic Acid] | 9.30 | – | –
12 | O=C(O)CC1(CSC2c3cc(OCc4ccc5cc(F)c(F)cc5n4)ccc3OCc3ncccc32)CC1 (stereo not drawn) [Example 7, 1-{[(7-[(6,7-difluoroquinolin-2-yl)methoxy]-5,11-dihydro[1]benzoxepino[3,4-b]pyrindin-5-yl)thio]methyl}cyclopropyl Acetic Acid] | 9.85 | 0.013 | –
13 | O=C(O)CCSC1c2cc(OCc3ccc4cc(F)c(Cl)cc4n3)ccc2OCc2ncccc21 (stereo not drawn) [Example 4, 3-{(7-[(7-chloro,6-fluoro-quinolin-2-yl)methoxy]-5,11-dihydro[1]benzoxepino[3,4-b]pyrindin-5-yl)thio}propanoic Acid] | 9.55 | 0.03 | –
14 | O=C(O)CC1(CSC2c3cc(OCc4ccc5cc(F)c(F)cc5n4)ccc3OCc3cccnc32)CC1 (stereo not drawn) [Example 18, 1-{[(9-[(6,7-difluoroquinolin-2-yl)methoxy]-5,11-dihydro[1]benzoxepino[4,3-b]pyrindin-11-yl)thio]methyl}cyclopropyl Acetic Acid] | 9.48 | – | –
15 | O=C(O)CCSC1c2cc(OCc3ccc4cc(F)c(F)cc4n3)ccc2OCc2ncccc21 (single isomer, unassigned; (+)) [Example 34, (+)-3-[7-(6,7-Difluoro-quinolin-2-ylmethoxy)-5,11-dihydro-10-oxa-1-aza-dibenzo[a,d]cyclohepten-5-ylsulfanyl]-propionic Acid] | 8.92 | 0.018 | –
16 | O=C(O)CC1(CSC2c3cc(/C=C/c4ccc5cc(F)c(F)cc5n4)ccc3C=Cc3ncccc32)CC1 (stereo not drawn) [Example 40, (1-{7-[2-(6,7-Difluoro-quinolin-2-yl)-vinyl]-5H-benzo[4,5]cyclohepta[1,2-b]pyridin-5-ylsulfanylmethyl}-cyclopropyl) Acetic Acid] | 9.30 | – | –
17 | O=C(O)CCSC1c2ccccc2COc2ccc(OCc3ccc4cc(F)c(Cl)cc4n3)cc21 (stereo not drawn) [Compound A, reference compound] | 9.29 | – | 0.010
18 | O=C(O)CCSC1c2cc(CCc3ccc4cc(F)c(F)cc4n3)ccc2OCc2cccnc21 (stereo not drawn) [Example 28, 3-{7-[2-(6,7-Difluoro-quinolin-2-yl)-ethyl]-5,11-dihydro-10-oxa-4-aza-dibenzo[a,d]cyclohepten-5-ylsulfanyl}-propionic Acid] | 8.70 | – | –
19 | O=C(O)CCSC1c2cc(OCc3ccc4cc(F)c(F)cc4n3)ccc2OCc2ncccc21 (stereo not drawn) [Example 1, 3-{(7-[(6,7-difluoroquinolin-2-yl)methoxy]-5,11-dihydro[1]benzoxepino[3,4-b]pyridin-5-yl)thio}propanoic Acid] | 9.42 | 0.009 | –
20 | O=C(O)CCSC1c2cc(OCc3ccc4cc(F)c(F)cc4n3)ccc2CCc2ncccc21 (stereo not drawn) [Example 24, 3-[7-(6,7-difluoro-quinolin-2-ylmethoxy)-10,11-dihydro-5H-benzo[4,5]cyclohepta[1,2-b]pyridin-5-ylsulfanyl]-propionic Acid] | 9.22 | 0.01 | –
